Test results: PubChem BioAssay (NCI)
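All cell lines were grown in 96-well plates and treated with compound for 48 hours. GI50 marks 50% less growth. TGI denotes the concentration required for complete inhibition of growth.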

Experiments:
Assay in all cases: NCI tumour cell line growth inhibition, 48 h
[1] = system: OVCAR-5 ovarian
[2] = system: IGROV1 ovarian
[3] = system: CCRF-CEM leukemia
[4] = system: SF-268 CNS
[5] = system: 786-0 renal
[6] = system: RXF 393 renal
[7] = system: LXFL 529 NSCLC
[8] = system: COLO 205 colon
[9] = system: HOP-62 NSCLC
[10] = system: SK-MEL-5 melanoma

Structure (SMILES): NC(=S)NN/C=C(\C=Nc1ccccc1)[N+](=O)[O-]
- TGI [1]: > 100 µM
- TGI [2]: > 100 µM
- TGI [3]: > 100 µM
- TGI [4]: > 100 µM
- TGI [5]: > 100 µM
- TGI [6]: > 100 µM
- TGI [7]: > 100 µM
- TGI [8]: > 100 µM
- TGI [9]: > 100 µM

Structure (SMILES): O=C(O)c1ccc(C2C(=O)N[C@@H]3CCC[C@H]23)cc1 (stereo not given in full)
- TGI [1]: > 100 µM
- TGI [2]: > 100 µM
- TGI [3]: > 100 µM
- TGI [4]: > 100 µM
- TGI [5]: > 100 µM
- TGI [6]: > 100 µM
- TGI [10]: > 100 µM
- TGI [7]: > 100 µM
- TGI [8]: > 100 µM
- TGI [9]: > 100 µM

Structure (SMILES): CCOC(=O)NC(=O)c1cn(CCN2CCN(C(=O)CCCCCCCCCCC(=O)N3CCN(CCn4cc(C(=O)NC(=O)OCC)c(=O)[nH]c4=O)CC3)CC2)c(=O)[nH]c1=O
- TGI [1]: > 100 µM
- TGI [2]: > 100 µM
- TGI [3]: > 100 µM
- TGI [4]: > 100 µM
- TGI [5]: > 100 µM
- TGI [10]: > 100 µM
- TGI [7]: > 100 µM
- TGI [8]: > 100 µM
- TGI [9]: > 100 µM

Structure (SMILES): COC(=O)C(/C(=N\O)C(=O)Nc1cccc(Cl)c1C)c1cnc2ccccc2n1 (stereo not given)
- TGI [1]: > 100 µM
- TGI [2]: > 100 µM
- TGI [3]: > 100 µM
- TGI [4]: > 100 µM
- TGI [5]: > 100 µM
- TGI [6]: > 100 µM
- TGI [10]: > 100 µM
- TGI [8]: > 100 µM
- TGI [9]: > 100 µM

Structure (SMILES): Cc1ccccc1C(=O)N1CCN(C(=O)c2ccccc2C)CC1
- TGI [1]: > 100 µM
- TGI [2]: > 100 µM
- TGI [3]: > 100 µM
- TGI [4]: > 100 µM
- TGI [5]: > 100 µM
- TGI [6]: > 100 µM
- TGI [10]: > 100 µM
- TGI [7]: > 100 µM
- TGI [9]: > 100 µM

Structure (SMILES): CN1/C(=C\C=C\C2=[N+](C)c3ccccc3C2(C)C)C(C)(C)c2ccccc21
- GI50 [1]: 0.37 µM
- TGI [1]: 15.5 µM
- GI50 [2]: 0.116 µM
- TGI [2]: 1.74 µM
- GI50 [3]: 0.176 µM
- TGI [3]: 12.6 µM
- GI50 [4]: 0.274 µM
- TGI [4]: 13 µM
- GI50 [5]: 0.251 µM
- TGI [5]: 5.44 µM
- GI50 [6]: 0.216 µM
- TGI [6]: 1.13 µM
- GI50 [10]: 0.0322 µM
- TGI [10]: 0.151 µM
- GI50 [8]: 0.0457 µM
- TGI [8]: 0.257 µM
- GI50 [9]: 0.258 µM
- TGI [9]: 7.37 µM

Structure (SMILES): COc1cc2c(cc1OC)C(C(=O)c1cccc(OC)c1OC)C(=O)N(C)CC2 (stereo not given)
- TGI [2]: > 100 µM
- TGI [3]: > 100 µM
- TGI [4]: > 100 µM
- TGI [5]: > 100 µM
- TGI [6]: > 100 µM
- TGI [10]: > 100 µM
- TGI [7]: > 100 µM
- TGI [8]: > 100 µM
- TGI [9]: > 100 µM

Structure (SMILES): Nc1ncnc2c1ncn2CC(O)CO (stereo not given)
- TGI [2]: > 100 µM
- TGI [3]: > 100 µM
- TGI [4]: > 100 µM
- TGI [5]: > 100 µM
- TGI [6]: > 100 µM
- TGI [10]: > 100 µM
- TGI [7]: > 100 µM
- TGI [8]: > 100 µM

Structure (SMILES): CCN(C(=O)/C=C/c1ccco1)c1ccccc1
- TGI [1]: > 100 µM
- TGI [2]: > 100 µM
- TGI [3]: > 100 µM
- TGI [4]: > 100 µM
- TGI [5]: > 100 µM
- TGI [6]: > 100 µM
- TGI [10]: > 100 µM
- TGI [8]: > 100 µM
- TGI [9]: > 100 µM

Structure (SMILES): O=S(=O)(CCCl)c1ccc(Cl)cc1
- GI50 [1]: 3.56 µM
- TGI [1]: 14.2 µM
- GI50 [2]: 2.41 µM
- TGI [2]: 7.44 µM
- GI50 [3]: 2.95 µM
- TGI [3]: 20.9 µM
- GI50 [4]: 2.87 µM
- TGI [4]: 10.8 µM
- GI50 [5]: 6.41 µM
- TGI [5]: 21.4 µM
- GI50 [6]: 2.32 µM
- TGI [6]: 8.96 µM
- GI50 [10]: 6.27 µM
- TGI [10]: 20.4 µM
- GI50 [8]: 3.74 µM
- TGI [8]: 11.7 µM
- GI50 [9]: 15.7 µM
- TGI [9]: 30.6 µM

Structure (SMILES): Cn1c2ccccc2c(=O)c2c(O)cc3c(c21)C=CC1(CCCCC1)O3
- TGI [1]: > 10 µM
- TGI [2]: > 10 µM
- TGI [3]: > 10 µM
- TGI [4]: > 10 µM
- TGI [5]: > 10 µM
- TGI [6]: > 10 µM
- TGI [10]: > 10 µM
- TGI [8]: > 10 µM
- TGI [9]: > 10 µM

Structure (SMILES): CC(=O)OCC1OC(N2C(=O)C(=O)c3ccccc32)C(OC(C)=O)C(OC(C)=O)C1OC(C)=O (stereo not given)
- TGI [2]: > 100 µM
- TGI [3]: > 100 µM
- TGI [4]: > 100 µM
- TGI [5]: > 100 µM
- TGI [6]: > 100 µM
- TGI [10]: > 100 µM
- TGI [7]: > 100 µM
- TGI [8]: > 100 µM
- TGI [9]: > 100 µM

Structure (SMILES): Cc1cc(I)cc(CN(C)CCCN2CCCC2)c1O
- GI50 [1]: 27.8 µM
- TGI [1]: > 94.7 µM
- GI50 [2]: 19.5 µM
- TGI [2]: 44.7 µM
- GI50 [3]: 3.46 µM
- TGI [3]: 38.1 µM
- GI50 [4]: 17.2 µM
- TGI [4]: 49.2 µM
- GI50 [5]: 14.4 µM
- TGI [5]: 30.3 µM
- GI50 [6]: 16.3 µM
- TGI [6]: 41 µM
- GI50 [10]: 13.1 µM
- TGI [10]: 26 µM
- GI50 [8]: 15.6 µM
- TGI [8]: 33.1 µM
- GI50 [9]: 16.4 µM
- TGI [9]: 34.8 µM

Structure (SMILES): COc1ccc(C(=O)c2ccc([As]=O)cc2)cc1 (stereo not given)
- GI50 [1]: 0.144 µM
- TGI [1]: 0.292 µM
- GI50 [2]: 0.0363 µM
- TGI [2]: 0.158 µM
- GI50 [3]: 0.0296 µM
- TGI [3]: 0.171 µM
- GI50 [4]: 0.0348 µM
- TGI [4]: 0.136 µM
- GI50 [5]: 0.0605 µM
- TGI [5]: 0.191 µM
- GI50 [6]: 0.059 µM
- TGI [6]: 0.188 µM
- GI50 [10]: 0.14 µM
- TGI [10]: 0.288 µM
- GI50 [8]: 0.041 µM
- TGI [8]: 0.166 µM
- GI50 [9]: 0.0412 µM
- TGI [9]: 0.183 µM

Structure (SMILES): CCOC(=O)/C(C#N)=C\C=C(/Cl)c1ccc(Cl)cc1
- GI50 [1]: 29.7 µM
- TGI [1]: 59.4 µM
- GI50 [2]: 5.78 µM
- TGI [2]: 27.1 µM
- GI50 [3]: 0.484 µM
- TGI [3]: > 100 µM
- GI50 [4]: 27.9 µM
- TGI [4]: > 77 µM
- GI50 [5]: 19.4 µM
- TGI [5]: 37.4 µM
- GI50 [6]: 21.6 µM
- TGI [6]: 45.9 µM
- GI50 [10]: 18.4 µM
- TGI [10]: 39 µM
- GI50 [8]: 19.1 µM
- TGI [8]: > 48 µM
- GI50 [9]: 17.5 µM
- TGI [9]: 35.2 µM

Structure (SMILES): CCNC(=O)COc1ccc(Cl)cc1Cl
- TGI [1]: > 100 µM
- TGI [2]: > 100 µM
- TGI [4]: > 100 µM
- TGI [5]: > 100 µM
- TGI [10]: > 100 µM
- TGI [7]: > 100 µM
- TGI [8]: > 100 µM
- TGI [9]: > 100 µM

Structure (SMILES): CC1(C)CC2C(=O)c3ccccc3NC2c2ccccc21 (stereo not given)
- TGI [1]: > 100 µM
- TGI [2]: > 100 µM
- TGI [3]: > 100 µM
- TGI [4]: > 100 µM
- TGI [5]: > 100 µM
- TGI [6]: 8.58 µM
- TGI [10]: 26.7 µM
- TGI [8]: 22.1 µM
- TGI [9]: > 100 µM

Structure (SMILES): Oc1ccccc1-c1nn(CNc2ccccc2Cl)c(=S)o1
- GI50 [1]: 37.2 µM
- TGI [1]: > 100 µM
- GI50 [2]: > 100 µM
- TGI [2]: > 100 µM
- GI50 [3]: 20.1 µM
- TGI [3]: 55.4 µM
- GI50 [4]: > 100 µM
- TGI [4]: > 100 µM
- GI50 [5]: > 100 µM
- TGI [5]: > 100 µM
- GI50 [6]: > 100 µM
- TGI [6]: > 100 µM
- GI50 [10]: > 100 µM
- TGI [10]: > 100 µM
- GI50 [8]: 27 µM
- TGI [8]: > 100 µM
- GI50 [9]: > 100 µM
- TGI [9]: > 100 µM
